Legend:
[1] = test system: normal NK cells expanded with K562-aAPC; test: percent inhibition of viability; higher = more inhibition; conditions: 72 h, IL-2 2.5 ng/mL
Experimental: (§1)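 Drug sensitivity and resistance testing on K562-aAPC-expanded normal NK cells: 5 concentrations (10-fold steps over a 10,000-fold range), 72 h at 37 °C, viability by CellTiter-Glo normalised to DMSO and benzethonium chloride controls; DSS from the fitted curve.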

KAI3 (IL-2 2.5 ng/mL) [2] = test: as above; conditions: 72 h
NK-92 (IL-2 2.5 ng/mL) [3] = test: as above; conditions: 72 h
DERL-7 (IL-2 2.5 ng/mL) [4] = test: as above; conditions: 72 h
[5] = test system: normal primary NK cells, pool 1 (3 donors), resting (IL-2 0 ng/mL); test: as above; conditions: 72 h
NKL (IL-2 2.5 ng/mL) [6] = test: as above; conditions: 72 h
[7] = test system: normal primary NK cells, pool 3 (3 donors) (IL-2 2.5 ng/mL); test: as above; conditions: 72 h
SNK-6 (IL-2 2.5 ng/mL) [8] = test: as above; conditions: 72 h
[9] = test system: normal primary NK cells, pool 2 (3 donors) (IL-2 2.5 ng/mL); test: as above; conditions: 72 h
[10] = test system: normal primary NK cells, pool 1 (3 donors) (IL-2 2.5 ng/mL); test: as above; conditions: 72 h
YT (IL-2 2.5 ng/mL) [11] = test: as above; conditions: 72 h
IMC-1 (IL-2 20 ng/mL) [12] = test: as above; conditions: 72 h
KHYG-1 (IL-2 2.5 ng/mL) [13] = test: as above; conditions: 72 h
NK-YS (IL-2 2.5 ng/mL) [14] = test: as above; conditions: 72 h
KAI3 (IL-2 2.5 ng/mL) [15] = test: drug sensitivity score (DSS) (DSS units); higher = more sensitive; extreme values may be limits of the assay; conditions: 72 h
NK-92 (IL-2 2.5 ng/mL) [16] = test: as above; conditions: 72 h
DERL-7 (IL-2 2.5 ng/mL) [17] = test: as above; conditions: 72 h
[18] = test system: normal primary NK cells, pool 1 (3 donors), resting (IL-2 0 ng/mL); test: as above; conditions: 72 h
NKL (IL-2 2.5 ng/mL) [19] = test: as above; conditions: 72 h
[20] = test system: normal primary NK cells, pool 3 (3 donors) (IL-2 2.5 ng/mL); test: as above; conditions: 72 h
SNK-6 (IL-2 2.5 ng/mL) [21] = test: as above; conditions: 72 h
[22] = test system: normal primary NK cells, pool 2 (3 donors) (IL-2 2.5 ng/mL); test: as above; conditions: 72 h
[23] = test system: normal primary NK cells, pool 1 (3 donors) (IL-2 2.5 ng/mL); test: as above; conditions: 72 h
YT (IL-2 2.5 ng/mL) [24] = test: as above; conditions: 72 h
IMC-1 (IL-2 20 ng/mL) [25] = test: as above; conditions: 72 h
KHYG-1 (IL-2 2.5 ng/mL) [26] = test: as above; conditions: 72 h
NK-YS (IL-2 2.5 ng/mL) [27] = test: as above; conditions: 72 h
[28] = test system: normal NK cells expanded with K562-aAPC; test: as above; conditions: 72 h; IL-2 2.5 ng/mL
Experimental: as §1

CCc1nc(-c2cccc(C)c2)c(-c2ccnc(NC(=O)c3ccccc3)c2)s1 [TAK-715] (max concentration tested 10000 nM)
percent inhibition of viability [%]
Conditions | 1 nM | 10 nM | 100 nM | 1000 nM | 10000 nM
DERL-7 (IL-2 2.5 ng/mL) [4] | -3.04 | 0.75 | -2.18 | -4.76 | 8.69
IMC-1 (IL-2 20 ng/mL) [12] | -6.3 | 1.07 | -0.32 | 8.04 | 35.2
KAI3 (IL-2 2.5 ng/mL) [2] | -4.52 | 11.6 | 8.66 | 14 | 47
KHYG-1 (IL-2 2.5 ng/mL) [13] | -3.44 | 6.66 | 1.56 | 3.92 | 42.6
NK-92 (IL-2 2.5 ng/mL) [3] | -3.47 | -2.91 | 1.84 | 9.91 | 81.8
NK-YS (IL-2 2.5 ng/mL) [14] | -4.18 | 3.4 | 5.2 | 13.3 | 54.6
NKL (IL-2 2.5 ng/mL) [6] | -0.29 | 6.95 | 13.8 | 30.5 | 43.6
SNK-6 (IL-2 2.5 ng/mL) [8] | -15.1 | -7.56 | -2.44 | -0.98 | 67
YT (IL-2 2.5 ng/mL) [11] | -1.34 | 5.71 | 0.2 | 5.66 | 48.7
[1] | -6.95 | -2.48 | -3.15 | 7.93 | 1.86
[5] | 2.15 | 0.59 | -2.35 | -18.5 | 45.6
[7] | -8.64 | -2.23 | 3.1 | -8.31 | 13.7
[9] | -3.82 | 0.59 | 1.26 | -4.23 | 23.5
[10] | -3.9 | -10.5 | -3.55 | -13.9 | 13.3

Conditions | drug sensitivity score
DERL-7 (IL-2 2.5 ng/mL) [17] | 0
IMC-1 (IL-2 20 ng/mL) [25] | 2.93
KAI3 (IL-2 2.5 ng/mL) [15] | 3.97
KHYG-1 (IL-2 2.5 ng/mL) [26] | 2.79
NK-92 (IL-2 2.5 ng/mL) [16] | 6.19
NK-YS (IL-2 2.5 ng/mL) [27] | 5.02
NKL (IL-2 2.5 ng/mL) [19] | 6.94
SNK-6 (IL-2 2.5 ng/mL) [21] | 3.59
YT (IL-2 2.5 ng/mL) [24] | 3.5
[18] | 1.63
[20] | 0.05
[22] | 0.63
[23] | 0.02
[28] | 0

COc1cc2c(NC3CCN(C(C)C)CC3)nc(C3CCCCC3)nc2cc1OCCCN1CCCC1 [UNC0638] (max concentration tested 10000 nM)
percent inhibition of viability [%]
Conditions | 1 nM | 10 nM | 100 nM | 1000 nM | 10000 nM
DERL-7 (IL-2 2.5 ng/mL) [4] | 2.53 | 3.85 | -3.65 | 12.8 | 101
IMC-1 (IL-2 20 ng/mL) [12] | -2.5 | -1.52 | 2.54 | 4.7 | 100
KAI3 (IL-2 2.5 ng/mL) [2] | -1.49 | 2.96 | 15.3 | 64.9 | 107
KHYG-1 (IL-2 2.5 ng/mL) [13] | 3.45 | -2.32 | 4.32 | 6.75 | 102
NK-92 (IL-2 2.5 ng/mL) [3] | 5.67 | 5.27 | 21.5 | 21.4 | 104
NK-YS (IL-2 2.5 ng/mL) [14] | -0.95 | -0.93 | 1.21 | 6.18 | 103
NKL (IL-2 2.5 ng/mL) [6] | -8.37 | -2.53 | -3.47 | 10 | 103
SNK-6 (IL-2 2.5 ng/mL) [8] | -6.73 | -2.24 | 11.7 | 23.5 | 101
YT (IL-2 2.5 ng/mL) [11] | -0.28 | -1.09 | 4.71 | 0.39 | 102
[1] | -0.44 | 0.89 | 0.9 | 3.67 | 100
[5] | 7.27 | -7.21 | -5.23 | 10.6 | 100
[7] | -4.55 | -0.2 | 2.47 | -3.99 | 100
[9] | -8.36 | -2.48 | -3.63 | 1.06 | 100
[10] | 4.83 | -1.29 | 1.24 | -5.62 | 100

Conditions | drug sensitivity score
DERL-7 (IL-2 2.5 ng/mL) [17] | 7.69
IMC-1 (IL-2 20 ng/mL) [25] | 6.26
KAI3 (IL-2 2.5 ng/mL) [15] | 14.4
KHYG-1 (IL-2 2.5 ng/mL) [26] | 6.72
NK-92 (IL-2 2.5 ng/mL) [16] | 8.98
NK-YS (IL-2 2.5 ng/mL) [27] | 6.67
NKL (IL-2 2.5 ng/mL) [19] | 7.29
SNK-6 (IL-2 2.5 ng/mL) [21] | 9.2
YT (IL-2 2.5 ng/mL) [24] | 5.79
[18] | 7.28
[20] | 5.3
[22] | 5.75
[23] | 5.15
[28] | 6.1

O=C(O)c1ccc(Nc2ncc3c(n2)-c2ccc(Cl)cc2C(c2c(F)cccc2F)=NC3)cc1 [MLN-8054] (max concentration tested 10000 nM)
percent inhibition of viability [%]
Conditions | 1 nM | 10 nM | 100 nM | 1000 nM | 10000 nM
DERL-7 (IL-2 2.5 ng/mL) [4] | -1.42 | -2.27 | -2.98 | 42.2 | 63.5
IMC-1 (IL-2 20 ng/mL) [12] | 2.52 | 4.23 | 18.1 | 27.9 | 87.8
KAI3 (IL-2 2.5 ng/mL) [2] | 5.5 | 5.3 | 20.2 | 51.7 | 71.4
KHYG-1 (IL-2 2.5 ng/mL) [13] | 4.03 | 6.1 | 20 | 64.1 | 79
NK-92 (IL-2 2.5 ng/mL) [3] | 7.92 | 3.31 | 17.5 | 33.8 | 65.2
NK-YS (IL-2 2.5 ng/mL) [14] | 5.25 | 3.3 | 40.5 | 74 | 86.5
NKL (IL-2 2.5 ng/mL) [6] | 12.4 | 12.3 | 30.5 | 66.5 | 36.9
SNK-6 (IL-2 2.5 ng/mL) [8] | -1.52 | 0.61 | 53.3 | 78.6 | 81.5
YT (IL-2 2.5 ng/mL) [11] | 4.9 | 5.88 | 21 | 51.3 | 62
[1] | 0.34 | 1.46 | -1.49 | 39.7 | 57.7
[5] | 19.2 | -7.07 | 0.26 | -14.7 | 13.3
[7] | 5.09 | 2.04 | 1 | 3.1 | 12.9
[9] | 1.69 | -1.38 | 2.04 | -0.41 | 21.9
[10] | -5.64 | -11.5 | -5.12 | -17.1 | 3.94

Conditions | drug sensitivity score
DERL-7 (IL-2 2.5 ng/mL) [17] | 8.47
IMC-1 (IL-2 20 ng/mL) [25] | 7.96
KAI3 (IL-2 2.5 ng/mL) [15] | 12.2
KHYG-1 (IL-2 2.5 ng/mL) [26] | 14.3
NK-92 (IL-2 2.5 ng/mL) [16] | 8.69
NK-YS (IL-2 2.5 ng/mL) [27] | 19
NKL (IL-2 2.5 ng/mL) [19] | 14
SNK-6 (IL-2 2.5 ng/mL) [21] | 21.2
YT (IL-2 2.5 ng/mL) [24] | 11.9
[18] | 0.03
[20] | 0.29
[22] | 0.7
[23] | 0
[28] | 7.83

From the supplement of paper PMC5908809
